Values of other authors as cited in US8063151B2, “Methods for manufacturing copolymers having 1-methyl-2-methoxyethyl moieties and use of same” (Abbott Laboratories, priority 2006, dated 2011).

Conditions: comparison with ethanol

## COCC(C)O (stereo not shown) [1-methoxy-2-propanol]
  toxicity compared with other solvents: in a range more similar to ethanol
